Experimental data taken from US20230130243A1, “Method of Treating Urothelial Carcinoma and Other Genitourinary Malignancies Using N-(4-(6,7-dimethoxyquinolin-4-yloxy)phenyl)-N'-(4-fluorophenyl)cyclopropane-1,1-dicarboxamide” (The United States of America, as Represented by the …, priority 2016, published 2023).

What was measured:
[1] = test system: Treg (CD4+CD25hiFoxp3+) in CD4+ T-cells; test: Treg population in urothelial cancer patients treated with cabozantinib (FIGS. 1, 2); assay type: in vivo, human
Text: Directly killing the tregs, and 2. Influencing treg polarization. See Apolo, A B, et al., J. Clin. Oncol. 2014; 32s:abstr 4501.
With reference to FIG. 2, it is believed that cabozantinib downregulates regulatory T cell population by acting on T cell polarization via inhibition of transcription factor Foxp3. The biologic rationale for combining cabozantinib and immune checkpoint blockade in mUC can be extrapolated from the results shown in FIGS. 2A and 2B. In FIG. 2A, patients with lower percent Treg (CD4+CD25hiFoxp3+) in CD4+ T-cells (<3.89%=median value) at baseline had better response compared with those who had higher percent Treg at baseline.

[2] = test system: peripheral blood mononuclear cells (PBMC); test: PBMC incubated with Cabozantinib, master regulator transcription factors of CD4+ T-cell polarization (FIGS. 1A and 1B); assay type: cell-based; conditions: PBMCs, 3-4 days, 10% FBS-RPMI, Cabozantinib 10 uM vs DMSO control; three donors
Experimental: With reference to FIGS. 1A and 1B, peripheral blood mononuclear cells (PBMC) were obtained by centrifugation from buffy coat. PBMCs were incubated for 3-4 days in a 24 well plate with 10% FBS-RPMI medium with DMSO (control) or Cabozantinib (10 uM). Representative data obtained from three different donors were shown. […] Naïve CD4+ T-cells can polarize toward four CD4+ lineages.

[3] = test system: relapsed/refractory metastatic urothelial carcinoma (mUC); conditions: pretreated patients with relapsed/refractory mUC; cited from earlier work
[4] = test system: metastatic urothelial carcinoma and other genitourinary malignancies; test: Phase I study of CaboNivo and CaboNivoIpi in patients; assay type: in vivo, human
Text: This example provides results of a Phase I study of Cabozantinib (Cabo)+Nivolumab (Nivo) and (CaboNivo) Cabo+Nivolumab+Ipilimumab (Ipi) (CaboNivoIpi) in patients with metastatic urothelial carcinoma and other genitourinary malignancies.
The study provides results of a Phase I study of Cabozantinib+Nivolumab and Cabozantinib+Nivolumab+Ipilimumab in patients with metastatic urothelial carcinoma and other genitourinary malignancies. The purpose of the study was to determine the dose limiting toxicity (DLT) and recommended Phase II dose (RP2D) of the combination of CaboNivo and separately the combination of CaboNivolpi. In the study, DLT was defined as any event requiring a patient to discontinue study treatment. The DLT evaluation period was 4 weeks (Part 1) and 6 weeks (Part 2).
Secondary endpoints for the study included overall response rate (ORR) by RECIST v1.1; duration of response; progression free survival (PFS); and overall survival (OS). Exploratory Endpoints included the identification of immune subset biomarkers associated with PD-L1 and MET expression as well as correlation with efficacy.
Key eligibility criteria for the study included: • Histologically confirmed diagnostic of genitourinary (GU) malignancy; • Patients with metastatic GU malignancy who has disease progression on at least one standard therapy or there must be no standard treatment that prolongs survival; • A Karnofsky performance status of greater than or equal to 70 percent; and • One evaluable site of disease or bone disease by NaF PET/CT.

[5] = test system: metastatic urothelial carcinoma (mUC); conditions: mUC patients progressed despite prior platinum-containing chemotherapy; cited from earlier work

COc1cc2nccc(Oc3ccc(NC(=O)C4(C(=O)Nc5ccc(F)cc5)CC4)cc3)c2cc1OC [Cabozantinib, N-(4-(6,7-dimethoxyquinolin-4-yloxy)phenyl)-N′-(4-fluorophenyl)cyclopropane-1,1-dicarboxamide]
percent Treg among CD4+ T-cells ([1]; after treatment with Cabozantinib, FIG. 2B): decreased significantly
Treg population ([1]; urothelial cancer patients, FIG. 1, see Apolo et al. 2014): decrease the Treg population
suppression of master regulator transcription factors of CD4+ T-cell polarization [2]: suppresses only Foxp3
clinical activity [3]: clinical activity
patients with 3 dose reductions ([4]; 2 of the 18 patients with dose reduction): 11%
patients with 2 dose reductions ([4]; 6 of the 18 patients with dose reduction): 33%
patients with 1 dose reduction ([4]; 10 of the 18 patients with dose reduction): 56%
patients with ≥1 dose reduction of cabozantinib ([4]; 18 of 42 patients): 43%
median dose reduction ([4]; number of dose reductions per patient, 18 patients): 1 (range 1-3)

Nivolumab: IgG4 anti-PD-1 monoclonal antibody sold under the name OPDIVO
clinical activity [5]: clinical activity
